Literature values in paper PMC7466129, “Solid Lipid Nanoparticles for Duodenum Targeted Oral Delivery of Tilmicosin” (Pharmaceutics, 2020).
≈ marks a conversion by molar mass, not a printed value.

Tests used:
[1] = tested on: Actinobacillus pleuropneumoniae; parameters: method as in PMID 29139136
[2] = parameters: method as in PMID 31614726; settings: 100 °C, 30 min
Mycoplasma = tested on: Mycoplasma; parameters: method as in PMID 29149886

CC[C@H]1OC(=O)C[C@@H](O)[C@H](C)[C@@H](O[C@@H]2O[C@H](C)[C@@H](O)[C@H](N(C)C)[C@H]2O)[C@@H](CCN2C[C@H](C)C[C@H](C)C2)C[C@@H](C)C(=O)/C=C/C(C)=C/[C@@H]1CO[C@@H]1O[C@H](C)[C@@H](O)[C@@H](OC)[C@H]1OC [tilmicosin, Tilmicosin]
minimum inhibitory concentration (MIC) [1]: 0.5 µg/mL (≈ 0.575 µM)
saturation solubility in carnauba wax [2]: 50%
saturation solubility in hydrogenated castor oil [2]: 25%
minimum inhibitory concentration (MIC) (Mycoplasma): ≤ 0.25 µg/mL
